According to ChEMBL document CHEMBL1131601, “4-Amino-2-[4-[1-(benzyloxycarbonyl)-2(S)- [[(1,1-dimethylethyl)amino]carbonyl]-piperazinyl]-6, 7-dimethoxyquinazoline (L-765,314): a potent and selective alpha1b adrenergic receptor antagonist” (J Med Chem, 1998):

Experiments:
[1] = target: T1, Alpha-1B adrenergic receptor (Homo sapiens, UniProt P35368); assay: Compound was tested for binding affinity utilizing cloned receptor binding assays by using [125 I]HEAT as radioligand to the human Alpha-1B adrenergic receptor
T1 sequence (P35368 whole entry): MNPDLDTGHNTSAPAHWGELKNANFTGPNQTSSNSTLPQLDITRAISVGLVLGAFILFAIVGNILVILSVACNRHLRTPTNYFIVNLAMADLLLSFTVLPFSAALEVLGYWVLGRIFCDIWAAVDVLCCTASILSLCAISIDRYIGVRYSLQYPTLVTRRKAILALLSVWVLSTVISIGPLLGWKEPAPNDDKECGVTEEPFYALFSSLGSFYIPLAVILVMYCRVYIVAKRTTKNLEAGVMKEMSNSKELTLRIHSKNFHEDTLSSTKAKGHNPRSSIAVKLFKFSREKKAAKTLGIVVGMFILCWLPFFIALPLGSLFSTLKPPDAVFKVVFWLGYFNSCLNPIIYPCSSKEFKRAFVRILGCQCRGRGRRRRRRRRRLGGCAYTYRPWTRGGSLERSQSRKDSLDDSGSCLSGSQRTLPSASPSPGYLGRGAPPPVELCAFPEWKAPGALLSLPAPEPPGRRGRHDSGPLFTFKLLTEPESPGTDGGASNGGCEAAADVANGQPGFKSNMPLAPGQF

[2] = target: T2, Alpha-1D adrenergic receptor (Homo sapiens, UniProt P25100); assay: Compound was tested for binding affinity utilizing cloned receptor binding assays by using [125 I]HEAT as radioligand to the human Alpha-1D adrenergic receptor
T2 sequence (P25100 whole entry): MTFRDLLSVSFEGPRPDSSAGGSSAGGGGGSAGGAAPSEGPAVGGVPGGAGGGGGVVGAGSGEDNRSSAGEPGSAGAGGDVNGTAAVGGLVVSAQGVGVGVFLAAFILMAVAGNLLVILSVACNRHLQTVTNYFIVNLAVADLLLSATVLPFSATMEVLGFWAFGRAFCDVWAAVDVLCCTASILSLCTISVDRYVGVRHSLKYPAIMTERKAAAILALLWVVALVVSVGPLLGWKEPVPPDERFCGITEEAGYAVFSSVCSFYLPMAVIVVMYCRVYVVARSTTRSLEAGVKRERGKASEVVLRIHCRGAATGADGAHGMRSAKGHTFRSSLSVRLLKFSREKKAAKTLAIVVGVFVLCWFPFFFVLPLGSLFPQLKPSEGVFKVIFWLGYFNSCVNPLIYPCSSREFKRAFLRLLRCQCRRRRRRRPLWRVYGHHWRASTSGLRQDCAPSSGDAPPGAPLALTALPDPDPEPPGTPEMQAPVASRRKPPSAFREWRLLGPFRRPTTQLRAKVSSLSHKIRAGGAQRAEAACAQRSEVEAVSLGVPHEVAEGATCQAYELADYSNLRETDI

[3] = target: T3, Alpha-1B adrenergic receptor (Rattus norvegicus, UniProt P15823); assay: Compound was tested for the tissue binding affinity using [3H]- Prazosin as radioligand to the rat spleen Alpha-1B adrenergic receptor subtype; assay type: tissue-based
T3 sequence (P15823 whole entry): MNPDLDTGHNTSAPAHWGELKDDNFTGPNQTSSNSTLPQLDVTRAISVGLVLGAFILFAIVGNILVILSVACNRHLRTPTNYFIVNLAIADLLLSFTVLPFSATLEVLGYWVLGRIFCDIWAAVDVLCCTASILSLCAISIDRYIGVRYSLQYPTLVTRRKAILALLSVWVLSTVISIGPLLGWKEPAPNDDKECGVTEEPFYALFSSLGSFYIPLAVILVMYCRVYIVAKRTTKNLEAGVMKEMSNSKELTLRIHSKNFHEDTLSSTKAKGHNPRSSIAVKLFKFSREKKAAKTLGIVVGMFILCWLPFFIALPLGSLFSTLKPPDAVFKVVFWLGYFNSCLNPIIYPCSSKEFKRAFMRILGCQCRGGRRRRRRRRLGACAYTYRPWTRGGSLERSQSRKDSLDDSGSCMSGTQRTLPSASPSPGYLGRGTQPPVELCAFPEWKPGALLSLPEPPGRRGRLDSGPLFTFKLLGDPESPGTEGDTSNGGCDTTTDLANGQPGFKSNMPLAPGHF

[4] = target: T3, Alpha-1B adrenergic receptor; assay: Compound was evaluated for its ability to displace [125I]HEAT binding from rat Alpha-1B adrenergic receptor
[5] = target: T4, Alpha-1A adrenergic receptor (Homo sapiens, UniProt P35348); assay: Compound was tested for binding affinity utilizing cloned receptor binding assays by using [125 I]HEAT as radioligand to the human Alpha-1A adrenergic receptor
T4 sequence (P35348 whole entry): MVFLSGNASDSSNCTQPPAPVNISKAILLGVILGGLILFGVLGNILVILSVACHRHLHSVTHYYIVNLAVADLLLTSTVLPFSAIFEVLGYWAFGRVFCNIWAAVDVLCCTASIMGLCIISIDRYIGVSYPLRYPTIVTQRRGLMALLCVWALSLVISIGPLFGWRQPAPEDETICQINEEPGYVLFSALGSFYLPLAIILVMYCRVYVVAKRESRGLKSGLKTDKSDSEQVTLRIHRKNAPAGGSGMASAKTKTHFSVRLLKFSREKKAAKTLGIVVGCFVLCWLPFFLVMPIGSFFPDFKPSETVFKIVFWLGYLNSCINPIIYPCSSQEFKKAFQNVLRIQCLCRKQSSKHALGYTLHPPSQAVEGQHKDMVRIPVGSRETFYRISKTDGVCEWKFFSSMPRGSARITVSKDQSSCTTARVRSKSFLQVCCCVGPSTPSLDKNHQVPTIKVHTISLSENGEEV

[6] = target: T5, Alpha-1A adrenergic receptor (Rattus norvegicus, UniProt P43140); assay: Compound was tested for the tissue binding affinity using [3H]- Prazosin as radioligand to the rat prostate Alpha-1A adrenergic receptor subtype
T5 sequence (P43140 whole entry): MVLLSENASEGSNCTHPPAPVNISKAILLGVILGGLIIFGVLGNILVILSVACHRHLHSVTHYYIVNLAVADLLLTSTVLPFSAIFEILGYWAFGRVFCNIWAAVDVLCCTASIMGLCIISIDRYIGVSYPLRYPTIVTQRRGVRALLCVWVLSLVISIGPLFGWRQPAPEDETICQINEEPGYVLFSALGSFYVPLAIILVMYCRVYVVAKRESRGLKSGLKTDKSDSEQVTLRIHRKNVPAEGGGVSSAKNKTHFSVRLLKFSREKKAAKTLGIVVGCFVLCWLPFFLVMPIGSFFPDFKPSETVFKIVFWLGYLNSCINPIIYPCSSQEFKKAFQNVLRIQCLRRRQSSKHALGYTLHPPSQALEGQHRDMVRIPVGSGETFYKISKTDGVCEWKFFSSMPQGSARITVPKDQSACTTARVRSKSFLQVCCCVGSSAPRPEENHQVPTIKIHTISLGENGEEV

[7] = target: T6, Alpha-1D adrenergic receptor (Rattus norvegicus, UniProt P23944); assay: Compound was evaluated for its ability to displace [125I]HEAT binding from rat Alpha-1D adrenergic receptor
T6 sequence (P23944 whole entry): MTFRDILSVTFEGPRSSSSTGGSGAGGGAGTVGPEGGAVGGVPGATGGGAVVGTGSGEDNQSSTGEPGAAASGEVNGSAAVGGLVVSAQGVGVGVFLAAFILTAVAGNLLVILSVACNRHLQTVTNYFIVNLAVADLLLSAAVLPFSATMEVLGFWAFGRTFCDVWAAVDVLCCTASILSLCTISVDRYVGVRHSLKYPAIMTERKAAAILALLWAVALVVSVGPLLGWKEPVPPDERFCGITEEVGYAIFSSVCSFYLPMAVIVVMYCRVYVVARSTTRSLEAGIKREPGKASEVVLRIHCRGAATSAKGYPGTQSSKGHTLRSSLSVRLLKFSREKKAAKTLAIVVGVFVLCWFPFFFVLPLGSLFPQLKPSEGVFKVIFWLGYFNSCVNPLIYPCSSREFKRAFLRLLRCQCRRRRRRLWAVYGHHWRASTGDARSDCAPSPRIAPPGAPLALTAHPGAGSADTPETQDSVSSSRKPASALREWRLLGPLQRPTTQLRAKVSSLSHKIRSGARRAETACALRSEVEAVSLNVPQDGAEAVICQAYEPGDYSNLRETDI

[8] = target: T3, Alpha-1B adrenergic receptor; assay: Compound was tested for the tissue binding affinity using [3H]- Prazosin as radioligand to the rat liver Alpha-1B adrenergic receptor
[9] = target: T4, Alpha-1A adrenergic receptor; assay: Compound was tested for the tissue binding affinity using [3H]- Prazosin as radioligand to the human prostate Alpha-1A adrenergic receptor subtype
[10] = target: T5, Alpha-1A adrenergic receptor; assay: Compound was evaluated for its ability to displace [125I]HEAT binding from rat Alpha-1A adrenergic receptor
[11] = target: T1, Alpha-1B adrenergic receptor; assay: Compound was tested for the tissue binding affinity using [125I]- HEAT as radioligand to the human aorta Alpha-1B adrenergic receptor subtype.; assay type: tissue-based
[12] = target: T3, Alpha-1B adrenergic receptor; assay: Compound was tested for the tissue binding affinity using [3H]- Prazosin as radioligand to the rat spleen Alpha-1B adrenergic receptor subtype.; assay type: tissue-based
[13] = target: T4, Alpha-1A adrenergic receptor; assay: Compound was tested for the tissue binding affinity using [3H]- Prazosin as radioligand to the human prostate Alpha-1A adrenergic receptor subtype.
[14] = target: T1, Alpha-1B adrenergic receptor; assay: Compound was tested for the tissue binding affinity using [125I]- HEAT as radioligand to the human aorta Alpha-1B adrenergic receptor; assay type: tissue-based
[15] = target: T1, Alpha-1B adrenergic receptor; assay: Compound was tested for its binding affinity utilizing cloned receptor binding assays by using [125 I]HEAT as radioligand to the human Alpha-1B adrenergic receptor
[16] = target: T5, Alpha-1A adrenergic receptor; assay: Compound was tested for the tissue binding affinity using [3H]- Prazosin as radioligand to the rat prostate Alpha-1A adrenergic receptor subtype.
[17] = target: T4, Alpha-1A adrenergic receptor; assay: Compound was tested for its binding affinity utilizing cloned receptor binding assays by using [125 I]HEAT as radioligand to the human Alpha-1A adrenergic receptor
[18] = target: T2, Alpha-1D adrenergic receptor; assay: Compound was tested for its binding affinity utilizing cloned receptor binding assays by using [125 I]HEAT as radioligand to the human Alpha-1D adrenergic receptor
[19] = target: T1, Alpha-1B adrenergic receptor; assay: Compound was tested for its binding affinity utilizing cloned receptor binding assays by using [125 I]HEAT as radioligand to the human Alpha-1B adrenergic receptor (n >= 2)

Ki [1]	Ki [2]	IC50 [3]	Ki [4]	Ki [5]	IC50 [6]	Ki [7]	IC50 [8]	IC50 [9]	Ki [10]	IC50 [11]	IC50 [12]	IC50 [13]	IC50 [14]	Ki [15]	IC50 [16]	Ki [17]	Ki [18]	Ki [19]	Structure (SMILES)
0.0035 µM	0.073 µM	0.014 µM	0.007 µM	1.7 µM	2 µM	0.078 µM	0.015 µM	1.9 µM	0.58 µM	–	–	–	–	–	–	–	–	–	COc1cc2nc(N3CCN(C(=O)c4ccco4)[C@H](C(=O)NC(C)(C)C)C3)nc(N)c2cc1OC
0.025 µM	0.25 µM	–	1.5 µM	0.83 µM	–	0.63 µM	2.7 µM	–	0.51 µM	0.031 µM	1.5 µM	1.7 µM	–	–	–	–	–	–	COc1cc2nc(N3CCN[C@H](C(=O)NC(C)(C)C)C3)nc(N)c2cc1OC
–	–	–	0.0054 µM	–	–	0.05 µM	0.0093 µM	0.59 µM	0.5 µM	0.0088 µM	0.0093 µM	–	5.8 µM	0.002 µM	0.34 µM	0.42 µM	0.034 µM	–	COc1cc2nc(N3CCN(C(=O)OCc4ccccc4)[C@H](C(=O)NC(C)(C)C)C3)nc(N)c2cc1OC [L-765314]
–	–	–	0.328 µM	–	–	–	–	–	–	–	–	–	–	–	–	–	–	0.191 µM	COc1ccccc1N1CCN(CCN2C(=O)CC3(CCCC3)CC2=O)CC1 [BMY-7378]
–	–	–	0.0019 µM	–	–	0.0034 µM	–	–	–	–	–	–	–	–	–	–	0.002 µM	–	COc1cc2nc(N3CCN(C(=O)C4CCCO4)CC3)nc(N)c2cc1OC (configuration not stated) [TERAZOSIN]
